Results as given in patent publication US20050009886A1, “1,4-Dihydropyridine derivative with a guaiacoxypropanolamine and/or phenoxypropanolamine moiety” (priority 1998, published 2005).

Experiments:
Calcium = Calcium antagonism (pKCa^−1, Table 2)
β-adrenoreceptor (β1) [1] = target: T1, β-adrenoreceptor (β1) (Rattus norvegicus, UniProt P18090); assay: Isolated right atrium, L-isoproterenol-induced heart rate increase (pA2); design: species or system Wistar rat; settings: for β1/β2: from pA2 difference right atrium vs tracheal; for β1 Right Atrium (Slope): slope of Schild regression; for β1 Value of pA2 Right Atrium: vs L-isoproterenol, Schild plot
T1 construct: The right and left atria were then separated; from tissue; host or cells: isolated rat right atrium (spontaneously beating) and left atrium (electrically paced)
T1 sequence (P18090 whole entry): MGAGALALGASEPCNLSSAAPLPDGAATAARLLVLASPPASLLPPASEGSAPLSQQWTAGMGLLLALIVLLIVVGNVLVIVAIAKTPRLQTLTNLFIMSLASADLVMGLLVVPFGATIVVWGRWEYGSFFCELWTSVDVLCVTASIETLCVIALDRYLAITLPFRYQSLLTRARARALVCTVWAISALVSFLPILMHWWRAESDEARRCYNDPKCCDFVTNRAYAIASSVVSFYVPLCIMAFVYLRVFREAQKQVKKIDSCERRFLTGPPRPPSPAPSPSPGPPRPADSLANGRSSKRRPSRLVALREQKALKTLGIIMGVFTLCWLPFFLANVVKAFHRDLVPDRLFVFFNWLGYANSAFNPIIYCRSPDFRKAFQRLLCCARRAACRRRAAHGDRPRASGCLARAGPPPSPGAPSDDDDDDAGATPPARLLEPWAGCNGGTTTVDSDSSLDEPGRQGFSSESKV
Description: The right and left atria were then separated. The spontaneously-beating right atria was clipped on both end by heart shaped clips, where one end was fixed at the bottom of 10 ml of tissue bath made of physiological saline solution, and temperature maintained at 37° C. The other end of the atria was connected to a force transducer, and isometric contractions and beating rate of the right atria were recorded by COULBOURN AT-High-Speed VideoFigure. After the samples were given 250 mg of contractions and reach equilibrium the following experiments were carried out: • (a) β-adrenoceptor blocking action
Cumulative administration interval was when the previous concentration reached its greatest effect, the next concentration would be immediately given.
The equation is as follows: pA2=−Log KB Log(DRADJ−1)=nlog[B]−LogKB [formula]
[B] Test compound concentration in moles • KB: equilibrium dissociation constant • n: value of slope DR: test EC50 divided by control EC50 • CF: EC50 of second or third control groups divided by EC50 of first control group (c) Effect of Compound on the Increase of Spontaneous Beating in Right Atrium Caused by CaCl2

thoracic aorta = assay: Isolated thoracic aorta contraction caused by 75 mM KCl; design: species or system Wistar rat; settings: 10^−8M; 75 mM KCl contraction
Description: After sacrificing Wistar rat of weight between 300-500 gm, the thoracic aorta was immediately removed and placed in cold Kreb's solution. The fatty connecting tissue surrounding the vessel wall was removed and the thoracic aorta was cut into rings of length 5 mm. The two ends of each ring was pieced and fixed with “Z” shaped platinum wires. […] The sample was given 1 gm of tension and equilibrated for 60 minutes before the following experiments were carried out:
After thoracic aorta had reached equilibrium in the tissue trough, the normal Kreb's solution in the trough was replaced with 75 mM KCl solution to induce vasoconstriction. When the results had been recorded for at least 35 minutes, the aorta was repeatedly rinsed with normal Kreb's solution. After the aorta had re-equilibrated and at least rested for 60 minutes, different concentrations (10^−8, 10^−7, 10^−6, and 10^−5M) of compound 1 were separately added. 30 minutes later, 75 mM KCl was added again to induce vasoconstriction. This method was used to compare the differences in contraction induced by 75 mM KCl on thoracic aorta pre-treated and non-treated with compound 1.
0.1 μM of BayK8644 was first added into the tissue trough. 10 minutes later, 75 mM of concentrated Potassium solution was added to induce thoracic aorta contraction. When vasoconstriction had reached stability, different concentrations of (10^−8, 10^−7, 10^−6, and 10^−5M) compound 1 were separately added. The effects of aorta contraction induced by concentrated Potassium solution were observed.

[2] = Heart rate and blood pressure in living rat; type: in vivo, Wistar rats; settings: 1 mg/kg via femoral vein, anaesthetized rat
Source text: Male Wistar rats, weighing 200˜300 g were abdominal anaesthetized with pentobarbital sodium. Tracheal was cannulated to maintain normal respiration. Polyethylene tube was inserted into the left femoral vein to facilitate drug administration. A 3-way stopcock was used, with one end connected to a syringe for drug injection, while the other end was connected to the syringe filled with physiological saline. The latter was used to prevent residual drugs in the polyethylene tube after injection, which would affect experimental accuracy.
The right femoral artery was also inserted with polyethylene, and a 3-way stopcock was used too, where one end was connected to heparin solution to prevent embolism. The other end was connected to a Disposable Diaphragm Dome, TA1019, and linked to a transducer. Through an amplifier, a recorder recorded the overall and average arterial pressure; heart rate to evaluate the effect of drug on blood pressure and heart rate.

β2 = target: T2, β2 (Cavia porcellus, UniProt Q8K4Z4); assay: Guinea pig's isolated tracheal, L-isoproterenol relaxation of carbachol contraction (pA2); settings: for β2 Tracheal (slope): slope of Schild regression; for β2 Value of pA2 Tracheal: vs L-isoproterenol, carbachol 10^−6 M contraction
T2 construct: a portion of tracheal approximately 4 cm long was removed; from tissue; host or cells: isolated trachea of reserpine-pretreated guinea pigs
T2 sequence (Q8K4Z4 whole entry): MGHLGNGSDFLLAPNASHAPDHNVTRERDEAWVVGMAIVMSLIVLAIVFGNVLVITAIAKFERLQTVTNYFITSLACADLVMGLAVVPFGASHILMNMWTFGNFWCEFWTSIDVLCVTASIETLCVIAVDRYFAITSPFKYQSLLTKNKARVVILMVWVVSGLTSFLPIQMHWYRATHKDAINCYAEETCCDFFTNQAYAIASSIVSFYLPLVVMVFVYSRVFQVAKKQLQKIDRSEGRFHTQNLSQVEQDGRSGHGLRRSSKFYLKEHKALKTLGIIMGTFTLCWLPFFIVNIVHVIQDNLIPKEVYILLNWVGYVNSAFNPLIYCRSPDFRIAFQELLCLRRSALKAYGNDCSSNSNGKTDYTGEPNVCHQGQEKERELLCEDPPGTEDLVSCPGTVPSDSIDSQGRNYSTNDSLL
Description: Guinea pigs of weight between 300˜500 gm were used. […] After the guinea pigs were sacrificed, a slit was made along the neck, and a portion of tracheal approximately 4 cm long was removed. […] The two ends of the tracheal were clamped with frog-heart shaped clamps, one end was fixed at the bottom of tissue bath filled with 20 ml of Kreb's solution, maintained at 37° C., while the other end was connected to a force transducer. Through a COULBOURN AT-High-Speed Videograph, long isometric contractions were recorded. After the sample was given 1.5 gm of tension and equilibrated, the following experiments were performed:
Then the tracheal was repeatedly washed with Kreb's solution for 20 minutes and 10−6 M of carbochol was added to cause contraction in the guinea pig's tracheal. […] This is the test group.
(b) Calculation of pA2: similar to the calculation method for isolated right atrium experiment.

β-adrenoreceptor (β1) [3] = target: T1, β-adrenoreceptor (β1); assay: Isolated left atrium, L-isoproterenol-induced contractility increase (pA2); design: species or system Wistar rat; settings: for β1 Left Atrium (Slope): slope of Schild regression; for β1 Value of pA2 Left Atrium: vs L-isoproterenol, electrically stimulated
Description: The inspontaneously-beating left atrial tissue was obtained from rat's isolated right atrial tissue experiments. […] The contraction rate was 1 Hz and the resting tension 0.5 gm. After 60 minutes of equilibration, the following experiments were performed:
(a) Completion of cumulative concentration-response curve: similar to experimental method on isolated right atrium;
(b) Calculation of pA2 value: similar to calculation method on isolated right atrium.

Row | β2 Tracheal (slope) (β2) | β2 Value of pA2 Tracheal (β2) | β1 Left Atrium (Slope) (β-adrenoreceptor (β1) [3]) | β1 Value of pA2 Left Atrium (β-adrenoreceptor (β1) [3]) | Structure (SMILES) | Calcium Antagonism PKCa^−1 (Calcium) | Ratio of β1 and Calcium Antagonism (β-adrenoreceptor (β1) [1]) | β1/β2 (β-adrenoreceptor (β1) [1]) | β1 Right Atrium (Slope) (β-adrenoreceptor (β1) [1]) | β1 Value of pA2 Right Atrium (β-adrenoreceptor (β1) [1]) | Aorta Relaxation (thoracic aorta) [%] | Lowering of Blood Pressure [2] [mmHg] | Reduction of Heart Rate [2] [beats/min]
1 | (0.91 ± 0.21) | 7.24 ± 0.12 | (0.93 ± 0.19) | 6.91 ± 0.09 | CCCCNCC(O)COc1ccc(Cl)cc1C1C(C(=O)OCC)=C(C)NC(C)=C1C(=O)OCC (stereo not drawn) [Compound 5] | 7.89 ± 0.34 | 0.10 | 1.33 | (0.91 ± 0.23) | 7.37 ± 0.27 | 33 ± 2 | 74 ± 4 | 32 ± 4
2 | (0.89 ± 0.21) | 7.28 ± 0.21 | (0.88 ± 0.27) | 6.97 ± 0.29 | CCOC(=O)C1=C(C)NC(C)=C(C(=O)OCC)C1c1ccc(OCC(O)CNCCOc2ccccc2OC)c(Cl)c1 (stereo not drawn) [Compound 7, 4-{{N-{4-[2-hydroxy-3-(2-methoxy-1-oxyethyl-aminobenzene)propoxy]-3-choloro}phenyl} }-2,6-dimethyl-3,5-dicarbo-ethoxy-1,4-dihydropyridine] | 8.06 ± 0.27 | 0.07 | 1.34 | (0.91 ± 0.08) | 7.77 ± 0.34 | 45 ± 5 | 82 ± 6 | 40 ± 2
3 | (0.87 ± 0.18) | 7.27 ± 0.32 | (0.92 ± 0.12) | 6.90 ± 0.35 | CCOC(=O)C1=C(C)NC(C)=C(C(=O)OCC)C1c1cc(Cl)ccc1OCC(O)CNC(C)(C)C (stereo not drawn) [Compound 4] | 7.94 ± 0.56 | 0.08 | 1.31 | (0.83 ± 0.12) | 7.38 ± 0.12 | 35 ± 5 | 76 ± 6 | 33 ± 3
4 | (0.92 ± 0.17) | 7.27 ± 0.19 | (0.89 ± 0.12) | 7.03 ± 0.18 | CCOC(=O)C1=C(C)NC(C)=C(C(=O)OCC)C1c1cc([N+](=O)[O-])ccc1OCC(O)CNC(C)(C)C (stereo not drawn) [Compound 8] | 8.09 ± 0.13 | 0.08 | 1.29 | (0.83 ± 0.21) | 7.89 ± 0.23 | 43 ± 3 | 80 ± 3 | 40 ± 4
5 | (0.88 ± 0.23) | 7.33 ± 0.24 | (0.91 ± 0.18) | 7.12 ± 0.09 | CCOC(=O)C1=C(C)NC(C)=C(C(=O)OCC)C1c1cc([N+](=O)[O-])ccc1OCC(O)CNCCOc1ccccc1OC (stereo not drawn) [Compound 9] | 8.12 ± 0.32 | 0.07 | 1.30 | (0.88 ± 0.09) | 7.78 ± 0.12 | 47 ± 2 | 85 ± 6 | 40 ± 5

Row | Structure (SMILES) | β2 Tracheal (slope) (β2) | β2 Value of pA2 Tracheal (β2) | β1 Left Atrium (Slope) (β-adrenoreceptor (β1) [3]) | β1 Value of pA2 Left Atrium (β-adrenoreceptor (β1) [3]) | Calcium Antagonism PKCa^−1 (Calcium) | Ratio of β1 and Calcium Antagonism (β-adrenoreceptor (β1) [1]) | β1/β2 (β-adrenoreceptor (β1) [1]) | β1 Right Atrium (Slope) (β-adrenoreceptor (β1) [1]) | β1 Value of pA2 Right Atrium (β-adrenoreceptor (β1) [1]) | Aorta Relaxation (thoracic aorta) [%] | Lowering of Blood Pressure [2] [mmHg] | Reduction of Heart Rate [2] [beats/min]
6 | CCOC(=O)C1=C(C)NC(C)=C(C(=O)OCC)C1c1cc(Cl)ccc1OCC(O)CNCCOc1ccccc1OC (stereo not drawn) [Compound 6] | (0.90 ± 0.19) | 7.31 ± 0.19 | (0.91 ± 0.09) | 7.01 ± 0.28 | 8.01 ± 0.45 | 0.11 | 1.29 | (0.88 ± 0.12) | 7.41 ± 0.34 | 45 ± 4 | 80 ± 3 | 35 ± 5
